What was measured:
[1] = target: T1, PCSK9 (Homo sapiens, UniProt Q8NBP7, G670E/V474I); test: biochemical
Target sequence in this assay (Q8NBP7 with tags, fused parts or gaps V474I/G670E): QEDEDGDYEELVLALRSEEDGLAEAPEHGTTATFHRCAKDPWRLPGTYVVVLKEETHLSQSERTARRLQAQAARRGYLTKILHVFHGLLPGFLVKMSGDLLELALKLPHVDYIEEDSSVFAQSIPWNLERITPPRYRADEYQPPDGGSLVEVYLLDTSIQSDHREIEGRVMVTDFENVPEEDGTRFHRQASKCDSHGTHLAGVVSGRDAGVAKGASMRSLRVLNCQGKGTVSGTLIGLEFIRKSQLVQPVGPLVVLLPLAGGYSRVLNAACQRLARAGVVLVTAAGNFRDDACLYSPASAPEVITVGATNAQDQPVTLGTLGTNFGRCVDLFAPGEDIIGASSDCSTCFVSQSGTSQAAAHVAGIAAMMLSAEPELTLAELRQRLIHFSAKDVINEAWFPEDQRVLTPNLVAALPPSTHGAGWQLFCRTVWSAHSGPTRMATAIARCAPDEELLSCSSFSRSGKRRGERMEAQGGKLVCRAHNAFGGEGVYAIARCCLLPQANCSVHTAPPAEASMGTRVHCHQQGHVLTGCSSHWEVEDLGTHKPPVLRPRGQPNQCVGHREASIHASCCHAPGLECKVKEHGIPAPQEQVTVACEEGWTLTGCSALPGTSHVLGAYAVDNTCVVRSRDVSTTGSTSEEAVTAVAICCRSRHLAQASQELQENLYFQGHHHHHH

[2] = target: T1, PCSK9; test: cell-based
Target sequence in this assay (Q8NBP7 31-152): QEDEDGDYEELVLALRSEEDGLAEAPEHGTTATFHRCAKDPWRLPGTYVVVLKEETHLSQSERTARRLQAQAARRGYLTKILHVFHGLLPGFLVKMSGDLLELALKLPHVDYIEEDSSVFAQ
Target sequence in this assay (Q8NBP7 153-692 V474I/G670E): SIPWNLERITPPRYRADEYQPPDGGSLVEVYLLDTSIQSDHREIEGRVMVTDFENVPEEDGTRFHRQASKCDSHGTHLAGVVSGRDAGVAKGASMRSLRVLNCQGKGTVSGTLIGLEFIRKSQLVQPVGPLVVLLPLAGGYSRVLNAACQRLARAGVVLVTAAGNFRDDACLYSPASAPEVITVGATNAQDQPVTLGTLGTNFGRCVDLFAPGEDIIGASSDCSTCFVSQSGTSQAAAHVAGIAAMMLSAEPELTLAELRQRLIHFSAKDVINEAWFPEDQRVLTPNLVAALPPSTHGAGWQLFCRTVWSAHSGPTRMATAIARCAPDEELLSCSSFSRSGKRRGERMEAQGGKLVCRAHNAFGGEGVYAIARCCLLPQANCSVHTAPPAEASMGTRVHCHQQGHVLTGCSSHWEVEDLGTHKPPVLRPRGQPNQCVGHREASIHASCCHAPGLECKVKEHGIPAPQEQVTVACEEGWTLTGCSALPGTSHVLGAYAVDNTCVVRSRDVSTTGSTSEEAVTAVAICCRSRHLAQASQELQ
Description: This assay measures for PCSK9 antagonist activity based on a test compound's capacity to restore LDL-C uptake in HepG2 cells. The assay is based on exogenous PCSK9 and LDL-C complexed with a pH-sensitive dye. Outside the cells, at neutral pH, the pHrodo Red-LDL is dimly fluorescent but upon LDLR mediated endocytosis it fluoresces brightly. PCSK9 traffics the LDLR to intracellular degradation and reduces uptake of LDL-C. Inhibition of PCSK9 reduces LDLR degradation and the increased LDL-C uptake is quantified by fluorescence microscopy.
Cell medium: MEM supplemented with 10% FBS, 1× NEAA and Sodium Pyruvate
Assay medium: OptiMem supplemented with penicillin/streptomycin
Cells: HepG2 (ATCC #HB-8065)
Cryopreserved HepG2 cells were thawed in assay medium and centrifuged for 5 min at 250 g. Supernatant was discarded and the cell pellet resuspended in cell medium and counted with a Nucleocounter. Cells were again centrifuged 5 min at 250 g and the pellet was resuspended to 500000 cells/mL in assay medium. • 2. 20 μL of above cell mix was dispensed into black pclear TC treated 384 well plates with Multidrop Combi and left at room temperature for 20 minutes. • 3. Plates were incubated at 37° C., 5% CO2 for 24 h
Test compounds were prepared in concentration response in DMSO with a half-log dilution factor in DMSO in Echo 384 LDV plates starting at 10 mM. • 2. 30 nL of above test compounds were dispensed with Echo 655 to cells for a top concentration of 10 μM • 3. […] Plates were incubated at 37° C., 5% CO2 for 24 h
10 μL pHrodo Red-LDL in assay medium was dispensed to cells with Multidrop Combi for 6 μg/mL • 2. Plates were incubated at 37° C., 5% CO2 and imaged with the Incucyte S3 after 4 h and 24 h
Image data was processed using Incucyte 2021, a software to identify cells and red fluorescent intensity. Screener was used to further process data. Data was normalized as % effect of the signal between median values of the on-plate controls of DMSO and 100 nM Evolocumab according to the formula % effect=−100*(x−DMSO)/(Evolocumab−DMSO) where x equals the measured signal. Concentration response data of the normalized values were fitted using a four-parameter logistic fit.

[3] = target: PCSK9 (Homo sapiens, UniProt Q8NBP7); test: Assay 2 - Biophysical human PCSK9 assay (SPR, Biacore); type: binding; parameters: biotinylated human PCSK9 (31-692)-Avi-His6; conditions: geometric mean; SPR single-cycle kinetics, 30° C.; read-out: Assay 2 (PCSK9 BIAcore DBA CR) GMean Kd
Description: The SPR binding experiments were performed on a Biacore S200 optical biosensor unit at 30° C. A Series S Sensor Chip SA that is designed to bind biotinylated molecules for interaction analysis in Biacore systems was equilibrated at room temperature prior to use. The running buffer for protein tethering and subsequent ligand binding experiments was 10 mM HEPES pH 7.4, 150 mM NaCl, 0.05% (v/v) Tween 20 pH 7.4.
For the surface tethering of PCSK9, biotinylated human PCSK9 (31-692)-Avi-His6 at a concentration of 0.5 mg/mL was used. Prior to the surface tethering, the surface was exposed to a solution of 50 mM NaOH, 500 mM NaCl via 3 consecutive injections of this solution with a contact time of 60 s and a flowrate of 10 μL min- to remove non-conjugated streptavidin. The PCSK9 protein was diluted to a concentration of 20 μg/mL using running buffer and injected with a contact time of 180-300 s and a flowrate of 10 μL min^−1 over a single flow channel (typically flow channel 2 or flow channel 4) with the aim to achieve protein capture levels of >5000 response units (RU). Remaining biotin binding sites were blocked via 2 consecutive injections of a 10 μM D-biotin solution in running buffer with a contact time of 60 s and a flowrate of 10 μL min^−1 over all flow-channels.
The binding experiments were all performed at a flow rate of 30 μL min^−1 and by employing the method of single-cycle kinetics. This approach involves the sequential injection of a compound concentration series without regeneration steps. A contact time between 90-150 s was selected, which was followed by a 40 min dissociation phase to allow for a proper estimation of the dissociation rate constant. Test compounds were delivered in DMSO at a concentration of 10 mM and a digital dispenser HP D300 was used to set up the compound concentration series using 6 concentrations. The tested concentrations have been 30, 100, 300, 1000, 3000 and 10000 nM. Prior to injecting any compound, the surfaces were equilibrated by injecting running buffer over them in three separate pulses. The data collection rate was set to 10 Hz.
The raw sensorgrams of the compound injections were first subjected to reference subtraction (subtracting the signal from flow channel 1 and/or 3 from the signal from channels 2 and/or 4 respectively) and then blank subtraction (subtracting the signal from injecting DMSO controls from the reference subtracted data). The resulting double-referenced sensorgrams were then fitted using a 1:1 binding interaction model using the manufactures software package to extract kinetic- and affinity data.

[4] = target: T2, potassium ion channel hERG (human Ether-á-go-go-Related Gene) (Homo sapiens, UniProt Q12809); test: Assay 5 - hERG assay (SyncroPatch 384PE patch clamp, CHO cells); type: cell-based; conditions: geometric mean, CHO cells over-expressing hERG, read-out: Assay 5 (hERG Hu CHO IF EPh CR-Syncro) GMean IC50
T2 construct: expressed in transfected cells; host or cells: Chinese hamster ovary K1 (CHO)
Outline: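 Automated whole-cell patch clamp at room temperature on CHO-K1 cells over-expressing hERG, using K-fluoride/escin internal solution (pH 7.2) and NMDG-containing external solution (pH 7.4). Compounds were tested in a 6-point cumulative format, 0.33% final DMSO. Wells accepted only with seal >30 MegaOhm, Z′>0.4 and current >0.2 nA.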

[5] = target: GSK3b (Glycogen synthase kinase-3 beta) (Homo sapiens, UniProt P49841); test: Assay 6 - GSK3b assay (ThermoFisher, FRET Z-Lyte); type: biochemical; conditions: geometric mean; ATP Conc: 10.000 μM; read-out: Assay 6 (GSK3B FRET-Z-Lyte CR) GMean IC50 (μM) ATP Conc: 10.000
Outline: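 Z-Lyte FRET kinase assay: 0.22-0.92 ng GSK3β with 2 μM Ser/Thr 09 peptide in 50 mM HEPES pH 7.5, 10 mM MgCl2, 1 mM EGTA, 0.01% BRIJ-35, 60 min at room temperature, then 60 min development. Compounds in 1% DMSO, 10-point 3-fold dilutions from 10 μM; sigmoidal dose-response fit.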

Sequence of GSK3b (Glycogen synthase kinase-3 beta) (P49841 whole entry): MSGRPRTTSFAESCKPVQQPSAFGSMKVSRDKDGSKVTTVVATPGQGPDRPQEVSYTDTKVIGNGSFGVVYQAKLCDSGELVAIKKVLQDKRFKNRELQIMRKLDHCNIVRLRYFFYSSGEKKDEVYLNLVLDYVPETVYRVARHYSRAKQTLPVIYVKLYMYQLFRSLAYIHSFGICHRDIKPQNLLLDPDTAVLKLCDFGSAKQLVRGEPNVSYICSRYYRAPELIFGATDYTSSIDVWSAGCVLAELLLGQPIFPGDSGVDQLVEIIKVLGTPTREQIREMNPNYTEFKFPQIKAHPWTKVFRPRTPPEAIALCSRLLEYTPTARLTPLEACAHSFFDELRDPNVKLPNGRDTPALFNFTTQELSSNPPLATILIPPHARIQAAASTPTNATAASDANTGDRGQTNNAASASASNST
Sequence of PCSK9 (Homo sapiens, UniProt Q8NBP7) (Q8NBP7 31-692): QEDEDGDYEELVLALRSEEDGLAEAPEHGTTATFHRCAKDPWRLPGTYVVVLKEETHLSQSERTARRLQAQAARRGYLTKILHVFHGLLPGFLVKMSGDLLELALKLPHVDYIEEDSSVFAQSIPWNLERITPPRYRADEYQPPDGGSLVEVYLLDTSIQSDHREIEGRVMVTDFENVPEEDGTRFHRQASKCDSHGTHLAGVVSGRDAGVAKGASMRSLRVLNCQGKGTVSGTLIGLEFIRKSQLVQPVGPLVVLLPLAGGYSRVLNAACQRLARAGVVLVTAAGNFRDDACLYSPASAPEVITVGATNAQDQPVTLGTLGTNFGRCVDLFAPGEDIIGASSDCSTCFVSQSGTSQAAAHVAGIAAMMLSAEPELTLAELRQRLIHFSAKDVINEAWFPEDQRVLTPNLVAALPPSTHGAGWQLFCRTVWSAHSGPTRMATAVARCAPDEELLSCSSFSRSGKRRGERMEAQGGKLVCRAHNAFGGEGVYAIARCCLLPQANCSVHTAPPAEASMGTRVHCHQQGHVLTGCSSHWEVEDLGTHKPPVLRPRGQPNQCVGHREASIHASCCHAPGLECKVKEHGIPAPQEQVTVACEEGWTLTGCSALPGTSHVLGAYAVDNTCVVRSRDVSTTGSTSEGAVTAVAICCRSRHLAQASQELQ
T2 sequence (Q12809 whole entry): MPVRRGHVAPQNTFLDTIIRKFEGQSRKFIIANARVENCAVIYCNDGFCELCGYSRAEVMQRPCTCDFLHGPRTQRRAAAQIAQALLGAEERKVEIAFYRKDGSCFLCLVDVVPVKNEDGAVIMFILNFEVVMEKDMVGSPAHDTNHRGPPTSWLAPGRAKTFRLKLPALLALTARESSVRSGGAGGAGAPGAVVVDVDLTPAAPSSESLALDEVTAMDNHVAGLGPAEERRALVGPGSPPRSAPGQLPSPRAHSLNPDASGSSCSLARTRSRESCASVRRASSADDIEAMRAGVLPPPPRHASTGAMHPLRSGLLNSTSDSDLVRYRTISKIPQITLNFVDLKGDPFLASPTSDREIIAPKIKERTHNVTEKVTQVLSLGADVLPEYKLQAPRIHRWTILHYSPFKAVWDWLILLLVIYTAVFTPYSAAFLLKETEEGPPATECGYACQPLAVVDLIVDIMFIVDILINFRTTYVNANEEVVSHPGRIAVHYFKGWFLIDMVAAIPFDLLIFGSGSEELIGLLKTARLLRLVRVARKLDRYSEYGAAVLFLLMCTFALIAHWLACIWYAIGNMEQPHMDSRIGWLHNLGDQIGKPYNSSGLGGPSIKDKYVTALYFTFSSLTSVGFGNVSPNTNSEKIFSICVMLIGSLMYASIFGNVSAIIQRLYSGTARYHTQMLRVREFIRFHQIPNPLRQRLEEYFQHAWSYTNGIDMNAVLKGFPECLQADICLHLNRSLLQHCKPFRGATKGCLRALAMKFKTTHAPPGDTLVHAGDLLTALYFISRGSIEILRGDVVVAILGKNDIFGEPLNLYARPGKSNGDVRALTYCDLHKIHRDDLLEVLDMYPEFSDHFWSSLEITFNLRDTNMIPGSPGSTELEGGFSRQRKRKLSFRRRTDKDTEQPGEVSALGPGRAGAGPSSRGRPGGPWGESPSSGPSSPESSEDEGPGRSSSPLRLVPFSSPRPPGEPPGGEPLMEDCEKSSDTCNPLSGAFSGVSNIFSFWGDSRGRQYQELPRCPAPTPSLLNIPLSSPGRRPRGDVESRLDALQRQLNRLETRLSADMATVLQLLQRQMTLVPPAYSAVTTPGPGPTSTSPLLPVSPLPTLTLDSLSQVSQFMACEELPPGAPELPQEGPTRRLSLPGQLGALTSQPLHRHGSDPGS

Row | SMILES | IC50 [1] [nM] | IC50 [2] [nM] | Kd [3] [nM] | IC50 [4] [nM] | IC50 [5] [µM]
1 | O=c1c2sccc2ccn1-c1ccc(N[C@H]2CC[C@H](Nc3nc4cccnc4s3)C2)nc1 [Example 76, 6-(6-(((1S,3S)-3-(Thiazolo[5,4-b]pyridin-2-ylamino)cyclopentyl)amino)pyridin-3-yl)thieno[2,3-c]pyridin-7(6H)-one] | 0.4 | 55 | 0.1 | 2570 | > 10
2 | COc1cccn(-c2ccc(N[C@H]3CC[C@H](Nc4nc5cccnc5o4)C3)nc2)c1=O [Example 12, 3-Methoxy-6′-(((1S,3S)-3-(oxazolo[5,4-b]pyridin-2-ylamino)cyclopentyl)amino)-2H-[1,3′-bipyridin]-2-one] | 3.5 | 158 | 3 | > 40000 | > 10
3 | O=c1ccccn1-c1ccc(N[C@H]2CC[C@H](Nc3nc4cc(CO)cnc4[nH]3)C2)nc1 [Example 61, 6′-(((1S,3S)-3-((6-(Hydroxymethyl)-3H-imidazo[4,5-b]pyridin-2-yl)amino)cyclopentyl)amino)-2H-[1,3′-bipyridin]-2-one] | 8.9 | 100 | 11 | > 40000 | > 10
4 | O=c1ccccn1-c1ccc(N[C@H]2CC[C@H](Nc3nc4cccnc4o3)C2)nc1 [Example 11, 6′-(((1S,3S)-3-(Oxazolo[5,4-b]pyridin-2-ylamino)cyclopentyl)amino)-2H-[1,3′-bipyridin]-2-one] | 28 |  | 24 | > 40000 | > 10
5 | O=c1[nH]c2ccsc2c(=O)n1-c1ccc(N[C@H]2CC[C@H](Nc3nc4cccnc4s3)C2)nc1 [Example 83, 3-(6-(((1S,3S)-3-(Thiazolo[5,4-b]pyridin-2-ylamino)cyclopentyl)amino)pyridin-3-yl)thieno[3,2-d]pyrimidine-2,4(1H,3H)-dione] | 0.5 | 79 | 0.1 | > 40100 | > 10
6 | O=c1ccccn1-c1ccc(N[C@H]2CC[C@H](Nc3nc4ccccc4[nH]3)C2)nc1 [Example 10, 6′-(((1S,3S)-3-((1H-Benzo[d]imidazol-2-yl)amino)cyclopentyl)amino)-2H-[1,3′-bipyridin]-2-one] | 2470 |  | 1550 | 4000 | > 10
7 | Cn1ccc(=O)n(-c2ccc(N[C@H]3CC[C@H](Nc4nc5cccnc5s4)C3)nc2)c1=O [Example 82, 1-Methyl-3-(6-(((1S,3S)-3-(thiazolo[5,4-b]pyridin-2-ylamino)cyclopentyl)amino)pyridin-3-yl)pyrimidine-2,4(1H,3H)-dione] | 2.3 | 124 | 1 | > 40100 | > 10
8 | N#Cc1cccn(-c2ccc(N[C@H]3CC[C@H](Nc4nc5cccnc5o4)C3)nc2)c1=O [Example 15, 6′-(((1S,3S)-3-(Oxazolo[5,4-b]pyridin-2-ylamino)cyclopentyl)amino)-2-oxo-2H-[1,3′-bipyridine]-3-carbonitrile] | 3.1 | 76 | 3 | > 40000 | > 10
9 | CN1C(=O)CN(c2ccc(N[C@H]3CC[C@H](Nc4nc5cccnc5[nH]4)C3)nc2)C1=O [Example 37, 1-(6-(((1S,3S)-3-((3H-Imidazo[4,5-b]pyridin-2-yl)amino)cyclopentyl)amino)pyridin-3-yl)-3-methylimidazolidine-2,4-dione] | 4.4 | 127 | 3 | > 40000 | > 10
10 | O=c1ccccn1-c1ccc(N[C@H]2CC[C@H](Nc3nc4cccnc4s3)C2)nc1 [Example 19, 6′-(((1S,3S)-3-(Thiazolo[5,4-b]pyridin-2-ylamino)cyclopentyl)amino)-2H-[1,3′-bipyridin]-2-one] | 4.4 | 157 | 4 | > 40000 | > 10
11 | O=c1ccccn1-c1ccc(N[C@H]2CC[C@H](Nc3nc4ccc(CO)cc4o3)C2)nc1 [Example 4, 6′-(((1S,3S)-3-((6-(Hydroxymethyl)benzo[d]oxazol-2-yl)amino)cyclopentyl)amino)-2H-[1,3′-bipyridin]-2-one] | 32.2 |  | 49 | > 40000 | > 10
12 | O=c1ccccn1-c1ccc(N[C@H]2CC[C@H](Nc3nc4cc(OC(F)F)cnc4[nH]3)C2)nc1 [Example 60, 6′-(((1S,3S)-3-((6-(Difluoromethoxy)-3H-imidazo[4,5-b]pyridin-2-yl)amino)cyclopentyl)amino)-2H-[1,3′-bipyridin]-2-one] | 0.6 | 41 | 1 | 33000 | 
13 | COc1cccc(F)c1-c1ccc(N[C@H]2CC[C@H](Nc3nc4cccnc4[nH]3)C2)nc1 [Example 67, (1S,3S)—N^1-(5-(2-Fluoro-6-methoxyphenyl)pyridin-2-yl)-N^3-(3H-imidazo[4,5-b]pyridin-2-yl)cyclopentane-1,3-diamine] | 18.1 |  | 57 | 3980 | > 10
14 | O=c1ccccn1-c1ccc(N[C@H]2CC[C@H](Nc3nc4ncccc4s3)C2)nc1 [Example 20, 6′-(((1S,3S)-3-(Thiazolo[4,5-b]pyridin-2-ylamino)cyclopentyl)amino)-2H-[1,3′-bipyridin]-2-one] | 603 |  | 672 | > 40100 | > 10
15 | O=c1ccc(OC(F)F)cn1-c1ccc(N[C@H]2CC[C@H](Nc3nc4cccnc4o3)C2)nc1 [Example 78, 5-(Difluoromethoxy)-6′-(((1S,3S)-3-(oxazolo[5,4-b]pyridin-2-ylamino)cyclopentyl)amino)-2H-[1,3′-bipyridin]-2-one] | 18.9 | 367 |  | 39600 | > 10
16 | O=c1ccccn1-c1ccc(N[C@H]2CC[C@H](Nc3nc4cc(OC(F)(F)F)cnc4[nH]3)C2)nc1 [Example 51, 6′-(((1S,3S)-3-((6-(Trifluoromethoxy)-3H-imidazo[4,5-b]pyridin-2-yl)amino)cyclopentyl)amino)-2H-[1,3′-bipyridin]-2-one] | 2.5 | 49 |  | 30000 | 1.52
17 | O=c1c(OC(F)F)cccn1-c1ccc(N[C@H]2CC[C@H](Nc3nc4cccnc4o3)C2)nc1 [Example 79, 3-(Difluoromethoxy)-6′-(((1S,3S)-3-(oxazolo[5,4-b]pyridin-2-ylamino)cyclopentyl)amino)-2H-[1,3′-bipyridin]-2-one] | 4.1 | 123 |  | 4570 | > 10
18 | COc1cccn(-c2ccc(N[C@H]3CC[C@H](Nc4nc5cccnc5[nH]4)C3)nc2)c1=O [Example 41, 6′-(((1S,3S)-3-((3H-Imidazo[4,5-b]pyridin-2-yl)amino)cyclopentyl)amino)-3-methoxy-2H-[1,3′-bipyridin]-2-one] | 3.5 | 186 |  | > 40000 | 0.066
19 | O=c1ccncn1-c1ccc(N[C@H]2CC[C@H](Nc3nc4cccnc4[nH]3)C2)nc1 [Example 29, 3-(6-(((1S,3S)-3-((3H-Imidazo[4,5-b]pyridin-2-yl)amino)cyclopentyl)amino)pyridin-3-yl)pyrimidin-4(3H)-one] | 5.7 | 68 |  | > 40000 | > 10

— patent US20240239767A1 (AstraZeneca AB, priority 2022, published 2024)
